Laboratory results reported in the NIST ThermoML archive (doi:10.1021/je3013205).

Assay: xn = mol fraction of the nth substance listed
Details: 101 kPa, Liquid, Vibrating tube method

OCCO [1,2-ethanediol] + NCCO
x1 = 1
Details | mass density [kg/m3]
283.15 K | 1119.29
293.15 K | 1112.37
303.15 K | 1105.39
313.15 K | 1098.34
323.15 K | 1091.21
333.15 K | 1083.99
343.15 K | 1076.65

OCCO [1,2-ethanediol] + NCCOCCO
x1 = 1
Details | mass density [kg/m3]
283.15 K | 1119.29
293.15 K | 1112.37
303.15 K | 1105.39
313.15 K | 1098.34
323.15 K | 1091.21
333.15 K | 1083.99
343.15 K | 1076.65

NCCOCCO [2-(2-aminoethoxy)ethanol] + CC(C)O
mass density [kg/m3]
Details | x2 = 0 | x2 = 0.1002 | x2 = 0.2002 | x2 = 0.2999 | x2 = 0.3998 | x2 = 0.5001 | x2 = 0.6 | x2 = 0.7001 | x2 = 0.7999 | x2 = 0.9
283.15 K | 1063.9 | 1045.45 | 1024.83 | 1002.4 | 978.848 | 953.526 | 926.557 | 896.824 | 864.765 | 830.522
293.15 K | 1055.86 | 1037.41 | 1016.77 | 994.333 | 970.775 | 945.419 | 918.428 | 888.658 | 856.572 | 822.302
303.15 K | 1047.8 | 1029.32 | 1008.68 | 986.21 | 962.634 | 937.23 | 910.206 | 880.385 | 848.24 | 813.893
313.15 K | 1039.73 | 1021.21 | 1000.54 | 978.03 | 954.426 | 928.957 | 901.852 | 871.966 | 839.727 | 805.266
323.15 K | 1031.63 | 1013.07 | 992.342 | 969.77 | 946.127 | 920.579 | 893.378 | 863.375 | 831.011 | 796.354
333.15 K | 1023.46 | 1004.87 | 984.07 | 961.425 | 937.625 | 912.056 | 884.74 | 854.584 | 822.035 | 787.116
343.15 K | 1015.24 | 996.578 | 975.712 | 952.983 | 929.152 | 903.381 | 875.931 | 845.569 | 812.769 | 777.485

NCCOCCO [2-(2-aminoethoxy)ethanol] + CO
mass density [kg/m3]
Details | x2 = 0 | x2 = 0.0999 | x2 = 0.1999 | x2 = 0.3001 | x2 = 0.4 | x2 = 0.5 | x2 = 0.6002 | x2 = 0.6999 | x2 = 0.8 | x2 = 0.9001
283.15 K | 1063.9 | 1055.89 | 1046 | 1034.44 | 1019.81 | 1002.23 | 980.617 | 953.558 | 916.98 | 868.243
293.15 K | 1055.86 | 1047.82 | 1037.87 | 1026.25 | 1011.56 | 993.898 | 972.194 | 945.032 | 908.292 | 859.298
303.15 K | 1047.8 | 1039.72 | 1029.71 | 1018.04 | 1003.27 | 985.526 | 963.722 | 936.443 | 899.545 | 850.287
313.15 K | 1039.73 | 1031.59 | 1021.52 | 1009.78 | 995.032 | 977.101 | 955.185 | 927.795 | 890.727 | 841.205
323.15 K | 1031.63 | 1023.41 | 1013.29 | 1001.48 | 986.54 | 968.618 | 946.586 | 919.061 | 881.797 | 832.01
333.15 K | 1023.46 | 1015.19 | 1004.99 | 993.102 | 978.075 | 960.052 | 937.892 | 910.228 | 872.764 | 822.672

NCCOCCO [2-(2-aminoethoxy)ethanol] + OCCO
mass density [kg/m3]
Details | x2 = 0 | x2 = 0.0999 | x2 = 0.1998 | x2 = 0.2998 | x2 = 0.4001 | x2 = 0.4999 | x2 = 0.5999 | x2 = 0.7002 | x2 = 0.8 | x2 = 0.8998
283.15 K | 1063.9 | 1069.41 | 1074.47 | 1079.73 | 1084.82 | 1090.24 | 1095.7 | 1101.26 | 1107.46 | 1113.95
293.15 K | 1055.86 | 1061.43 | 1066.58 | 1071.94 | 1077.11 | 1082.67 | 1088.26 | 1093.92 | 1100.25 | 1106.86
303.15 K | 1047.8 | 1053.44 | 1058.65 | 1064.1 | 1069.38 | 1075.06 | 1080.79 | 1086.54 | 1093 | 1099.72
313.15 K | 1039.73 | 1045.41 | 1050.69 | 1056.23 | 1061.6 | 1067.42 | 1073.26 | 1079.13 | 1085.7 | 1092.53
323.15 K | 1031.63 | 1037.35 | 1042.69 | 1048.31 | 1053.78 | 1059.7 | 1065.66 | 1071.68 | 1078.32 | 1085.26
333.15 K | 1023.46 | 1029.22 | 1034.63 | 1040.32 | 1045.89 | 1051.9 | 1057.97 | 1064.11 | 1070.86 | 1077.9
343.15 K | 1015.24 | 1021.03 | 1026.5 | 1032.27 | 1037.92 | 1044.03 | 1050.2 | 1056.51 | 1063.3 | 1070.45

NCCO [2-aminoethan-1-ol] + CC(C)O
mass density [kg/m3]
Details | x2 = 0 | x2 = 0.1001 | x2 = 0.1999 | x2 = 0.3002 | x2 = 0.4001 | x2 = 0.5001 | x2 = 0.5999 | x2 = 0.7 | x2 = 0.8002 | x2 = 0.8999
283.15 K | 1024.11 | 999.024 | 974.32 | 949.806 | 925.587 | 902.006 | 879.054 | 856.17 | 834.572 | 813.792
293.15 K | 1016.23 | 990.993 | 966.334 | 941.791 | 917.446 | 893.95 | 870.943 | 848.018 | 826.391 | 805.582
303.15 K | 1008.32 | 982.903 | 958.311 | 933.723 | 909.315 | 885.794 | 862.727 | 839.735 | 818.066 | 797.19
313.15 K | 1000.37 | 974.928 | 950.234 | 925.597 | 901.039 | 877.533 | 854.388 | 831.308 | 809.555 | 788.57
323.15 K | 992.364 | 966.92 | 942.073 | 917.361 | 892.673 | 869.138 | 845.897 | 822.707 | 800.81 | 779.665
333.15 K | 984.301 | 958.72 | 933.821 | 909.018 | 884.471 | 860.597 | 837.216 | 813.881 | 791.784 | 770.393
343.15 K | 976.153 | 950.596 | 925.458 | 900.544 | 875.887 | 851.867 | 828.323 | 804.773 | 782.457 | 760.722
